According to patent US10653780B2, “Amino lipids and methods for the delivery of nucleic acids” (ARBUTUS BIOPHARMA CORPORATION, priority 2008, dated 2020):
“And” between values parts separate entries of the source, which are not always exact repeats. Identical values can stand only once. Like-named read-outs stand apart in the source and are kept apart here.

What was measured:
[1] = In situ determination of apparent pKa using TNS fluorescence titration
Source text: In situ pKa measurements were made using the pH sensitive fluorescent probe TNS, using a modification of the approach previously published in Bailey, A. L. and Cullis, P. R., Biochemistry 33:12573-12580 (1994).
Titrations of surface charge as a function of pH can then be used to determine the apparent pKa (hereafter referred to as pKa) of constituent lipids (Cullis, P. R., et al., Chem Phys Lipids 40:127-144 (1986)).

Factor VII (FVII) = conditions: for FVII ED50: Table 11
Source text: It is well established that in vivo RNAi silencing of specific hepatocyte proteins can be achieved following intravenous (i.v.) administration of siRNA's encapsulated in, or associated with, select nanoparticles designed for intracellular delivery. […] In this Example, rational design in combination with in vivo screening were applied to systematically modify the structure of DLinDMA and identify molecular features that enhance or reduce cationic lipid potency. More than 30 lipids were synthesized and incorporated into nucleic acid-lipid particles, i.e., lipid nanoparticles (LN) encapsulating an siRNA (LN-siRNA) targeting Factor VII (FVII), a blood clotting component synthesized and secreted by hepatocytes that is readily measured in serum. LN-siRNA systems were prepared using the same process, lipid molar ratios and particle size to minimize effects on activity resulting from formulation characteristics other than the cationic lipid. Each formulation was administered as a single bolus injection over a range of doses enabling an estimate of the siRNA dose required to reduce FVII serum protein concentrations by 50% after 24 h (ED50).
FVII activity was evaluated in FVII siRNA-treated animals at 24 hours after intravenous (bolus) injection in C57BL/6 mice or 48 hours after intravenous (bolus) injection in SD rats. Six to 8 week old, female C57Bl/6 mice were obtained from Charles River Laboratories and acclimated for one week prior to use in studies. Animals were held in a pathogen-free environment and all procedures involving animals were performed in accordance with the guidelines established by the Canadian Council on Animal Care.
LN-siRNA systems containing Factor VII siRNA were diluted to the appropriate concentrations in sterile phosphate buffered saline immediately prior to use, and the formulations were administered intravenously via the lateral tail vein in a total volume of 10 ml/kg. After 24 h, animals were anaesthetised with Ketamine/Xylazine and blood was collected by cardiac puncture and processed to serum (Microtainer Serum Separator Tubes; Becton Dickinson, Franklin Lakes, N.J., USA). Serum was tested immediately or stored at −70° C. for later analysis for serum Factor VII levels.
FVII was measured using a commercially available kit (Biophen FVII Kit™; Aniara Corp., Mason, Ohio), following the manufacturer's instructions at a microplate scale. FVII reduction was determined against untreated control animals, and the results were expressed as % Residual FVII. Five dose levels (0.1, 0.3, 0.5, 1.0, and 3.0 mg/kg) were typically used.
Serum Factor VII levels were determined using the colorimetric Biophen VII assay kit (Anaira, USA). Briefly, serially diluted pooled control serum (200%-3.125%) and appropriately diluted plasma samples from treated animals were analyzed using the Biophen VII kit according to manufacturer's instructions in 96-well, flat bottom, non-binding polystyrene assay plates (Corning, Corning, N.Y.) and absorbance at 405 nm was measured. A calibration curve was generated using the serial diluted control serum and used to determine levels of Factor VII in serum from treated animals.
Initial studies were performed in eight to 10 week old, female C57BL/6 mice in two stages. In the first stage, the activity associated with the benchmark lipid DLinDMA was compared to the activity associated with modified forms of DLinDMA.

[2] = Tolerability of DLin-K-DMA-containing LN-siRNA systems in mice at extreme doses
Experimental: The tolerability of empty DLin-K-C2-DMA lipid particles (DLin-K-C2-DMA/DSPC/Chol/PEG-C-DOMG (40/10/40/10)) was evaluated by monitoring weight change, cageside observations, clinical chemistry and, in some instances, hematology in femal Sprague Dawley rats and female C57BL/6 mice. Animal weights were recorded prior to treatment and at 24 hours after intravenous treatment with various dosages. Data was recorded as % Change in Body Weight. In addition to body weight measurements, clinical chemistry panel, including liver function markers, was obtained at each dose level at 24 hours post-injection using an aliquot of the serum collected for FVII analysis. […] In some instances, additional animals were included in the treatment group to allow collection of whole blood for hematology analysis.
The toxicity criteria measured were % change in body weight and serum levels of the liver enzyme markers, ALT and AST.

[3] = Bilayer-to-hexagonal HII transition temperature (TBH) in equimolar mixtures with DSPS; assay type: physicochemical; conditions: equimolar with DSPS, pH 4.8; 31P NMR and DSC
Source text: Both techniques gave similar results.

[4] = Pharmacokinetic and liver analysis of Cy-3 labeled siRNA in LN-siRNA systems; assay type: in vivo
Source text: A fluorescently labeled siRNA (Cy-3 labeled luciferase siRNA, Alnylam Pharmaceuticals) was used to measure the siRNA content in plasma and liver after iv administration of LN-siRNA systems. The measurements were done by first extracting the Cy3-siRNA from the protein-containing biological matrix and then analyzing the amount of Cy-3 label in the extract by fluorescence. Two extraction methods were used, a chloroform/methanol mixture for the plasma samples and a commercial phenol/chloroform mixture (Trizol® reagent) with the tissue samples.
For plasma, blood was collected in EDTA-containing Vacutainer tubes and centrifuged at 1000×g for 10 min at 4-8° C. to isolate the plasma. The plasma was transferred to an eppendorf tube and either assayed immediately or stored in a −30° C. freezer. An aliquot of the plasma (100 μL maximum) was diluted to 500 μL with PBS (145 mM NaCl, 10 mM phosphate, pH 7.5), methanol (1.05 mL and chloroform (0.5 mL) was added, and the sample vortexed to obtain a clear, single phase solution. Water (0.5 mL) and chloroform (0.5 mL) was then added and the resulting emulsion sustained by mixing periodically for a minimum of 3 minutes. The mixture was centrifuged at 3000 rpm for 20 minutes and the top aqueous phase containing the Cy-3-label transferred to a new test tube. The fluorescence of the solution was measured using an SLM Fluorimeter at an excitation wavelength of 550 nm (2 nm bandwidth) and emission wavelength of 600 nm (16 nm bandwidth). A standard curve was generated by spiking aliquots of plasma from untreated animals with the Cy-3-siRNA containing formulation (0 to 15 μg/mL), and the sample processed as indicated above.
For liver, sections (400-500 mg) of tissue from saline-perfused animals was accurately weighed and homogenized in 1 mL of Trizol using Fastprep tubes. An aliquot of the homogenate (typically equivalent to 50 mg of tissue) was transferred to an eppendorf tube and additional Trizol added to 1 mL final. Chloroform (0.2 mL) was added, and the solution was mixed and incubated for 2-3 min before being centrifuged for 15 min at 12,000×g. An aliquot (0.5 mL) of the top Cy-3-containing aqueous phase was diluted with 0.5 mL of PBS and the fluorescence of the sample measured as described above.
The correlation between levels of siRNA delivered to the liver and FVII reduction was determined by encapsulating Cy-3 labeled siRNA in the selection of LN-siRNA systems covering a spectrum of in vivo activities shown in Table 8. Cy-3 fluorescence was measured in plasma and liver tissue 0.5 and 3.0 h post injection.

[5] = Table 7, siRNA dose reducing serum FVII protein by 50% at 24 h, PFV LN-siRNA 40/10/40/10
[6] = Table 4, siRNA dose reducing serum FVII protein by 50% at 24 h, PFV LN-siRNA 40/10/40/10
[7] = Table 6, siRNA dose reducing serum FVII protein by 50% at 24 h, PFV LN-siRNA 40/10/40/10
[8] = Table 8, FVII ED50 of the LN-siRNA system
[9] = siRNA dose reducing serum FVII protein by 50% at 24 h, PFV LN-siRNA 40/10/40/10
[10] = siRNA 0-10 mg/kg, total lipid 0-164 mg/kg
[11] = siRNA 46 mg/kg, total lipid 750 mg/kg
[12] = siRNA 61 mg/kg, total lipid 1000 mg/kg
[13] = siRNA 76 mg/kg, total lipid 1250 mg/kg
[14] = siRNA 92 mg/kg, total lipid 1500 mg/kg

CCCCC/C=C\C/C=C\CCCCCCCCC1(CCCCCCCC/C=C\C/C=C\CCCCC)OCC(CN(C)C)CO1 [DLin-K6-DMA, 2,2-dilinoleyl-5-dimethylaminomethyl-[1,3]-dioxane]
pKa [1]: 6.2 | ED50 (Factor VII (FVII); [5]): ~0.3 mg/kg | FVII ED50 (Factor VII (FVII)): ~0.3 mg/kg

CCCCC/C=C\C/C=C\CCCCCCCCC1(CCCCCCCC/C=C\C/C=C\CCCCC)OCC(CN(C)C)O1 (racemic) [DLin-K-DMA, 2,2-Dilinoleyl-4-dimethylaminomethyl-[1,3]-dioxolane]
pKa [1]: 5.6 | ED50 (Factor VII (FVII); [6]): ~0.4 mg/kg | ED50 (Factor VII (FVII); [7]): ~0.4 mg/kg | ED50 (Factor VII (FVII); [5]): ~1 mg/kg | ED50 (Factor VII (FVII); [8]): 0.3 mg/kg | FVII ED50 (Factor VII (FVII)): ~0.4 mg/kg | FVII ED50 (Factor VII (FVII); listed as DLin-K-DMA (racemic mixture)): ~0.3 mg/kg | fold more potent than the DLinDMA benchmark (Factor VII (FVII); reducing serum FVII protein, mouse, head-to-head): ~2.5 fold | ED50 (Factor VII (FVII); [9]): ~0.4 mg/kg | ED50 (Factor VII (FVII); siRNA dose reducing serum FVII protein by 50% at 24 h, PFV LN-siRNA 40/10/40/10, listed as DLin-K-DMA racemic mixture): ~0.3 mg/kg | siRNA dose up to which no changes in blood chemistry or body weight were observed ([2]; compared to saline controls, mice): 10 mg/kg | body weight lost ([2]; maximum dose 92 mg siRNA/kg, 1500 mg total lipid/kg): 6% | siRNA dose exceeded before severe (>10-fold) ALT/AST increases are observed ([2]; mice): exceeded 61 mg/kg | % Change Body Weight [2, 10]: 0% | ALT [2, 10]: 45 IU/L | AST [2, 10]: 90 IU/L | % Change Body Weight [2, 11]: −5.0% | ALT [2, 11]: 174 IU/L | AST [2, 11]: 340 IU/L | increases in serum ALT and AST [2, 11]: < 10 fold normal | % Change Body Weight [2, 12]: −4.5% | ALT [2, 12]: 448 IU/L | AST [2, 12]: 816 IU/L | % Change Body Weight [2, 13]: −5.5% | ALT [2, 13]: 1771 IU/L | AST [2, 13]: 4723 IU/L | % Change Body Weight [2, 14]: −6.0% | ALT [2, 14]: 4723 IU/L | AST [2, 14]: 2094 IU/L | fold greater than the ED50 dose ([2]; siRNA dose of 10 mg/kg without changes): > 30 fold | fold more than the ED50 ([2]; siRNA dose of 46 mg/kg, first significant toxicity signs): 150 fold | HII transition temperature [3]: 19 °C

CCCCC/C=C\C/C=C\CCCCCCCCC1(CCCCCCCC/C=C\C/C=C\CCCCC)OCC(CCCN(C)C)O1 (stereo not shown) [DLin-K-C3-DMA, 2,2-Dilinoleyl-4-(3-dimethylaminopropyl)-[1,3]-dioxolane]
pKa [1]: 6.8 | ED50 (Factor VII (FVII); [7]): ~0.6 mg/kg | FVII ED50 (Factor VII (FVII)): ~0.6 mg/kg | ED50 (Factor VII (FVII); [9]): ~0.6 mg/kg | HII transition temperature [3]: 18 °C

CCCCC/C=C\C/C=C\CCCCCCCCOCC(CN(C)C)OCCCCCCCC/C=C\C/C=C\CCCCC (stereo not shown) [DLinDMA, 1,2-Dilinoleyloxy-3-dimethylaminopropane, reference compound]
pKa [1]: 6.4 | molecules charged ([1]; at pH 7.4): 5-10% | pKa ([1]; nucleic acid-lipid particles containing the cationic lipid): 6.4 | ED50 (Factor VII (FVII); Table 3, siRNA dose reducing serum FVII protein by 50% at 24 h, single i.v. bolus, PFV LN-siRNA 40/10/40/10): ~1 mg/kg | ED50 (Factor VII (FVII); [6]): ~1 mg/kg | ED50 (Factor VII (FVII); Table 5, siRNA dose reducing serum FVII protein by 50% at 24 h, PFV LN-siRNA 40/10/40/10): ~1 mg/kg | ED50 (Factor VII (FVII); [8]): 1.0 mg/kg | FVII ED50 (Factor VII (FVII)): ~1.0 mg/kg | ED50 (Factor VII (FVII); [9]): ~1.0 mg/kg and 1 mg/kg | HII transition temperature [3]: 27 °C

CCCCC/C=C\C/C=C\CCCCCCCCOC(COC(=O)CCCCCCC/C=C\C/C=C\CCCCC)CN(C)C (stereo not shown) [DLin-2-DMAP, 1-Linoleoyl-2-linoeyloxy-3-dimethylaminopropane]
ED50 (Factor VII (FVII); [6]): 5 to 12 mg/kg | ED50 (Factor VII (FVII); [8]): 5 to 12 mg/kg | Liver Cy-3 siRNA ([4]; 0.5 h post injection): 20.5 % injected dose | Plasma Cy-3 siRNA ([4]; 0.5 h post injection): 17.5 % injected dose | Liver Cy-3 siRNA ([4]; 3.0 h post injection): 2.5 % injected dose | Plasma Cy-3 siRNA ([4]; 3.0 h post injection): 8.8 % injected dose

CCCCC/C=C\C/C=C\CCCCCCCCC1(CCCCCCCC/C=C\C/C=C\CCCCC)OCC(CCCCN(C)C)O1 (stereo not shown) [DLin-K-C4-DMA, 2,2-Dilinoleyl-4-(4-dimethylaminobutyl)-[1,3]-dioxolane]
pKa [1]: 6.8 | ED50 (Factor VII (FVII); [7]): >3 mg/kg | FVII ED50 (Factor VII (FVII)): >3.0 mg/kg | fold less active in vivo than DLin-K-C3-DMA (Factor VII (FVII); mouse, in vivo): more than 5 fold | ED50 (Factor VII (FVII); [9]): > 3 mg/kg | HII transition temperature [3]: 18 °C

CCCCC/C=C\C/C=C\CCCCCCCCC1(CCCCCCCC/C=C\C/C=C\CCCCC)OCC(CN2CCN(C)CC2)O1 (stereo not shown) [DLin-K-MPZ, 2,2-Dilinoleyl-4-N-methylpepiazino-[1,3]-dioxolane]
pKa [1]: 6.2 | ED50 (Factor VII (FVII); [7]): ~1.5 mg/kg | FVII ED50 (Factor VII (FVII)): ~1.5 mg/kg | fold less active than DLin-K-DMA (Factor VII (FVII); mouse FVII model): approximately 5 fold | ED50 (Factor VII (FVII); [9]): ~1.5 mg/kg
